According to patent publication US20250101039A1, “RIFAMYCIN DERIVATIVES FOR THE TREATMENT OF DISEASES” (priority 2022, published 2025):
≈ marks a conversion by molar mass, not a printed value.

Experiments:
S. aureus = test: MIC by broth microdilution, S. aureus; assay type: cell-based, Staphylococcus aureus; details: cation adjusted Mueller Hinton broth, 35° C. 20 hours
A. baumannii = test: MIC by broth microdilution, A. baumannii (WT); assay type: cell-based, Acinetobacter baumannii; details: for MIC A. baumannii: RPMI medium supplemented with 10% FCS, 35° C. 20 hours; for A. baumannii MIC, WT: Table 4, RPMI + FCS
[1] = tested on: M. abscessus (strain ATCC 19977); test: MIC by broth microdilution, M. abscessus; assay type: cell-based, Mycobacterium abscessus; details: strain ATCC 19977, Middlebrook 7H9 broth + ADC
A. baumannii RpoB H535C = test: microbe, parasite or virus in culture; assay type: cell-based, Acinetobacter baumannii; details: Table 4, RPMI + FCS
[2] = tested on: H. influenzae (strain ATCC 49247); test: MIC by broth microdilution, H. influenzae; assay type: cell-based, Hemophilus influenzae; details: strain ATCC 49247, Hemophilus test medium broth
A. baumannii RpoB H535Q = test: microbe, parasite or virus in culture; assay type: cell-based, Acinetobacter baumannii; details: Table 4, RPMI + FCS
[3] = tested on: S. pyogenes (strain IHMA 1117021); test: MIC by broth microdilution, S. pyogenes; assay type: cell-based, Streptococcus pyogenes; details: strain IHMA 1117021, cation adjusted Mueller Hinton broth + 5% laked horse blood
[4] = tested on: Enterococcus faecium (strain NCTC 12204); test: MIC by broth microdilution, E. faecium; assay type: cell-based; details: strain NCTC 12204, cation adjusted Mueller Hinton broth
[5] = tested on: S. pneumoniae (strain ATCC 49619); test: MIC by broth microdilution, S. pneumoniae; assay type: cell-based, Streptococcus pneumoniae; details: strain ATCC 49619, cation adjusted Mueller Hinton broth + 5% laked horse blood
[6] = tested on: Enterococcus faecalis (strain ATCC 51575); test: MIC by broth microdilution, E. faecalis; assay type: cell-based; details: strain ATCC 51575, cation adjusted Mueller Hinton broth
[7] = tested on: M. tuberculosis (H37Rv strain ATCC 27294); assay type: cell-based, Mycobacterium tuberculosis
[8] = tested on: M. smegmatis (strain ATCC 700084); test: MIC, M. smegmatis (BacTiter-Glo); assay type: cell-based, Mycobacterium smegmatis; details: strain ATCC 700084, Middlebrook 7H9 + ADC, 90% growth inhibition, 20 hours
A. baumannii RpoB H535L = test: microbe, parasite or virus in culture; assay type: cell-based, Acinetobacter baumannii; details: Table 4, RPMI + FCS
[9] = tested on: Staphylococcus epidermidis (strain ATCC 12228); test: MIC by broth microdilution, S. epidermidis; assay type: cell-based; details: strain ATCC 12228, cation adjusted Mueller Hinton broth

Row | SMILES | MIC S. aureus (S. aureus) [ng/mL] | MIC A. baumannii (A. baumannii) [µg/mL] | MIC M. abscessus [1] [µg/mL] | A. baumannii MIC, RpoB H535C (A. baumannii RpoB H535C) [mg/L] | MIC H. influenzae [2] [µg/mL] | A. baumannii MIC, RpoB H535Q (A. baumannii RpoB H535Q) [mg/L] | MIC S. pyogenes [3] [ng/mL] | MIC E. faecium [4] [µg/mL] | MIC S. pneumoniae [5] [ng/mL] | MIC E. faecalis [6] [µg/mL] | MIC M. tuberculosis [7] [µg/mL] | MIC M. smegmatis [8] [µg/mL] | A. baumannii MIC, WT (A. baumannii) [ng/mL] | A. baumannii MIC, RpoB H535L (A. baumannii RpoB H535L) [mg/L] | MIC S. epidermidis [9] [ng/mL]
1 | CO[C@H]1/C=C/O[C@@]2(C)Oc3c(C)c(O)c4c(c3C2=O)C2=NC3(NC2=C(NC(=O)/C(C)=C\C=C\[C@H](C)[C@H](O)[C@@H](C)[C@@H](O)[C@@H](C)[C@H](OC(C)=O)[C@@H]1C)C4=O)C1CNCC3CNC1 (stereo partly shown) [Compound 17] | 8 (≈ 0.00962 µM) | 0.5 (≈ 0.601 µM) |  |  |  |  |  |  |  |  |  |  |  |  | 
2 | CO[C@H]1/C=C/O[C@@]2(C)Oc3c(C)c(O)c4c(c3C2=O)C2=NC3(CC5CCC(C3)N5)NC2=C(NC(=O)/C(C)=C\C=C\[C@H](C)[C@H](O)[C@@H](C)[C@@H](O)[C@@H](C)[C@H](OC(C)=O)[C@@H]1C)C4=O (single isomer, unassigned) [Compound 12A] | 60 (≈ 0.0734 µM) | 0.06 (≈ 0.0734 µM) |  |  |  |  |  |  |  |  |  |  |  |  | 
3 | CO[C@H]1/C=C/O[C@@]2(C)Oc3c(C)c(O)c4c(c3C2=O)C2=NC3(CCCN(C)CC3)NC2=C(NC(=O)/C(C)=C\C=C\[C@H](C)[C@H](O)[C@@H](C)[C@@H](O)[C@@H](C)[C@H](OC(C)=O)[C@@H]1C)C4=O (single isomer, unassigned) [Compound 7A] | 8 (≈ 0.00977 µM) | 0.004 (≈ 0.00488 µM) | 16 | 0.03 | 0.06 (≈ 0.0733 µM) | 0.016 | < 2 | 0.06 (≈ 0.0733 µM) | < 2 | 0.5 (≈ 0.611 µM) | 0.01 (≈ 0.0122 µM) | 0.54 | 4 | 1 | < 2
4 | CO[C@H]1/C=C/O[C@@]2(C)Oc3c(C)c(O)c4c(c3C2=O)C2=NC3(CC5CCC(C3)N5C(C)C)NC2=C(NC(=O)/C(C)=C\C=C\[C@H](C)[C@H](O)[C@@H](C)[C@@H](O)[C@@H](C)[C@H](OC(C)=O)[C@@H]1C)C4=O (single isomer, unassigned) [Compound 14A] | 16 (≈ 0.0186 µM) | 0.25 (≈ 0.291 µM) |  |  |  |  |  |  |  |  |  |  |  |  | 
5 | COC1C=COC2(C)Oc3c(C)c(O)c4c(c3C2=O)C2=NC3(NC2=C(NC(=O)C(C)=CC=CC(C)C(O)C(C)C(O)C(C)C(OC(C)=O)C1C)C4=O)C1CC3CN(C)C1 (mixture of isomers) [5 (A + B)] | 125 | 8 |  |  |  |  |  |  |  |  |  |  |  |  | 
6 | CO[C@H]1/C=C/O[C@@]2(C)Oc3c(C)c(O)c4c(c3C2=O)C2=NC3(CCCN(C)CC3)NC2=C(NC(=O)/C(C)=C\C=C\[C@H](C)[C@H](O)[C@@H](C)[C@@H](O)[C@@H](C)[C@H](OC(C)=O)[C@@H]1C)C4=O (single isomer, unassigned) [Compound 7B] | 8 (≈ 0.00977 µM) | 0.125 (≈ 0.153 µM) |  |  |  |  |  |  |  |  |  |  |  |  | 
7 | CO[C@H]1/C=C/O[C@@]2(C)Oc3c(C)c(O)c4c(c3C2=O)C2=NC3(NC2=C(NC(=O)/C(C)=C\C=C\[C@H](C)[C@H](O)[C@@H](C)[C@@H](O)[C@@H](C)[C@H](OC(C)=O)[C@@H]1C)C4=O)C1CN2CC3CN(C1)C2 (stereo partly shown) [Compound 19] | 4 (≈ 0.00474 µM) | 1 (≈ 1.18 µM) |  |  |  |  |  |  |  |  |  |  |  |  | 
8 | COC1C=COC2(C)Oc3c(C)c(O)c4c(c3C2=O)C2=NC3(CCC5CCC(C3)N5C)NC2=C(NC(=O)C(C)=CC=CC(C)C(O)C(C)C(O)C(C)C(OC(C)=O)C1C)C4=O (mixture of isomers) [8 (A + B + C + D)] | 30 | 0.008 | 32 | 0.125 | 0.125 | 0.06 | 16 | 0.125 | < 2 | 2 | 0.01 | 1.19 | 8 | 1 | < 2
9 | CCCN1C2CCC1CC1(C2)N=C2C(=C3NC(=O)/C(C)=C\C=C\[C@H](C)[C@H](O)[C@@H](C)[C@@H](O)[C@@H](C)[C@H](OC(C)=O)[C@H](C)[C@@H](OC)/C=C/O[C@@]4(C)Oc5c(C)c(O)c(c2c5C4=O)C3=O)N1 (single isomer, unassigned) [Compound 20A] | 8 (≈ 0.00931 µM) | 0.25 (≈ 0.291 µM) |  |  |  |  |  |  |  |  |  |  |  |  | 
10 | COC1C=COC2(C)Oc3c(C)c(O)c4c(c3C2=O)C2=NC3(NC2=C(NC(=O)C(C)=CC=CC(C)C(O)C(C)C(O)C(C)C(OC(C)=O)C1C)C4=O)C1CCCC3CNC1 (mixture of isomers) [16 (A + B)] | 4 | < 0.002 | 4 | 0.016 | 0.06 | 0.008 | < 2 | 0.125 | < 2 | 0.5 |  | 0.33 | ≤2 | 1 | < 2
